This test has as its target T1, PIP4K2A (full length protein, SignalChem) (Homo sapiens, UniProt P48426).
T1 construct: 4 nM PIP4K2A (full length protein, SignalChem); purchased SignalChem
T1 sequence (P48426 1-406): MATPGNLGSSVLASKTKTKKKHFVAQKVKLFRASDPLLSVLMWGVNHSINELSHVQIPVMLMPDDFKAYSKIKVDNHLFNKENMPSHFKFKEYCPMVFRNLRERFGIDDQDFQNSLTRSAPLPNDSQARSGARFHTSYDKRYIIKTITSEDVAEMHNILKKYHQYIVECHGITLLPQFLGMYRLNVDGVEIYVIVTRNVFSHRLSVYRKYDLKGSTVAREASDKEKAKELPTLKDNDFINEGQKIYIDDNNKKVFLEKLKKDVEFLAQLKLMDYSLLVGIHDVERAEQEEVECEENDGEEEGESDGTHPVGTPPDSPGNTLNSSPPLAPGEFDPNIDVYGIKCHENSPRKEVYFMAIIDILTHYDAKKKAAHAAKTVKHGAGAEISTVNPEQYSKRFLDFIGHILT
The test can be described thus: Kinase Assay PIP4K2 A (Sprint); ADP-Glo biochemical assay. Conditions: Table 2; compounds listed under IC50 range headings. The procedure: Dilution series of the compounds were prepared in DMSO at 100 times the final assay concentration (n1=n0/3 in 10 points). The compounds were further diluted to three times the assay concentration in assay buffer (20 mM MOPS pH 7.2, 25 mM magnesium chloride, 0.005% Tween 20). 6 μL of the diluted compounds were added to a 384 well assay plate followed by 9 μL of a mix consisting of 4 nM PIP4K2A (full length protein, SignalChem) and 100 μM PI(5)P diC8 (Tebu-Bio). Enzyme and compounds were pre-incubated at room temperature for 15 min.
Then 3 μL of a solution containing 60 μM ATP (Promega) in assay buffer was added to the wells containing compound and enzyme and mixing was performed by pipetting several times. The reaction was incubated at room temperature for 1 h. Then 18 μL of ADP-Glo™ Reagent (Promega) was added to stop the kinase reaction and deplete the unconsumed ATP, mixing was performed by pipetting several times. The plate was incubated at room temperature for 40 min before addition of 36 μL of Kinase Detection Reagent (Promega) to convert ADP to ATP and introduce luciferase and luciferin to detect ATP. The reaction was incubated at room temperature for 40 min before the luminescence was measured in a in a Victor 3V 1420 multilabel counter (Perkin Elmer).
Percent inhibition of the compounds as compared to dimethyl sulfoxide treated control samples was calculated. Compound concentration versus percent inhibition were fitted to generate IC50 values.
Background: ADP-Glo first removes unused ATP, then detects ADP through luciferase.

From patent publication US11919902B2, “Aryl-bipyridine amine derivatives as phosphatidylinositol phosphate kinase inhibitors” (HiberCell, Inc., priority 2017, dated 2024) come the findings set out here.

The structures appear in SMILES notation.

In general, IC50 refers to the midpoint of a concentration-inhibition curve.

In turn, `CN(C)C(=O)c1ccc(-c2cncc(-c3ccnc(C(C)(C)O)c3)c2)cc1` [Example 8, 4-(2′-(2-hydroxypropan-2-yl)-[3,4′-bipyridin]-5-yl)-N,N-dimethylbenzamide] showed an IC50 of 1 to 2.5 µM.
Consider `Nc1ncc(-c2ccnc3oc(C(=O)NC4COC4)cc23)cc1-c1ccc(N2CCCC2=O)cc1` [Example 93, 4-(6-amino-5-(4-(2-oxopyrrolidin-1-yl)phenyl)pyridin-3-yl)-N-(oxetan-3-yl)furo[2,3-b]pyridine-2-carboxamide], for which the IC50 lay within 0.005 to 0.1 µM.
The compound `Cn1cc(-c2cncc(-c3ccc(N4CCCC4=O)cc3)c2)c2cc(C(C)(C)O)cnc21` [Example 154, 1-(4-(5-(5-(2-hydroxypropan-2-yl)-1-methyl-1H-pyrrolo[2,3-b]pyridin-3-yl)pyridin-3-yl)phenyl)pyrrolidin-2-one] had an IC50 of less than 5 µM.
In the case of `CN(C)C(=O)c1ccc(-c2cc(-c3ccnc(C4(C#N)CC4)c3)cnc2N)nc1` [Example 103, 2′-amino-2″-(1-cyanocyclopropyl)-N,N-dimethyl-[2,3′:5′,4″-terpyridine]-5-carboxamide], the IC50 was in the range of 0.1 to 1 µM.
Take `CN(C)C(=O)c1ccc(-c2cc(-c3ccncc3)cnc2N)cc1` [Example 16, 4-(6-amino-[3,4′-bipyridin]-5-yl)-N,N-dimethylbenzamide]: the IC50 was less than 5 µM.
In the case of `Cc1c(-c2ccncc2)cncc1-c1ccc(N2CCCC2=O)cc1` [Example 82, 1-(4-(4-methyl-[3,4′-bipyridin]-5-yl)phenyl)pyrrolidin-2-one], the IC50 was in the range of 0.1 to 1 µM.
`CN(C)C(=O)c1ccc(-c2cc(-c3ccnc4[nH]ncc34)cnc2N)nc1` [Example 212, 2′-amino-N,N-dimethyl-5′-(2H-pyrazolo[3,4-b]pyridin-4-yl)-[2,3′-bipyridine]-5-carboxamide] had a half-maximal inhibitory concentration (IC50) of 0.005 to 0.1 µM.
Take `CN(C)C(=O)c1ccc(-c2cncc(-c3cncc(-c4ccnc5[nH]ccc45)c3)c2)cc1` [Example 3, 4-(5′-(H-pyrrolo[2,3-b]pyridin-4-yl)-[3,3′-bipyridin]-5-yl)-N,N-dimethylbenzamide]: the IC50 lay in the range of 0.1 to 1 µM.
The compound `CN(C)C(=O)c1ccc(-c2cc(-c3ccnc4ccc(C#N)cc34)cnc2N)nc1` [Example 100, 2′-Amino-5′-(6-cyanoquinolin-4-yl)-N,N-dimethyl-[2,3′-bipyridine]-5-carboxamide] showed an IC50 of 0.1 to 1 µM.
The value for `CN(C)C(=O)c1ccc(-c2cc(-c3ccnc4ccncc34)cnc2N)nc1` [Example 112, 2′-amino-N,N-dimethyl-5′-(1,6-naphthyridin-4-yl)-[2,3′-bipyridine]-5-carboxamide] was 1 to 2.5 µM.
The compound `O=C1CCCN1c1ccc(-c2cncc(-c3c4n(c5ncccc35)CCC4)c2)cc1` [Example 299, 1-(4-(5-(7,8-dihydro-6H-pyrido[3,2-b]pyrrolizin-5-yl)pyridin-3-yl)phenyl)pyrrolidin-2-one] showed an IC50 of 0.005 to 0.1 µM.
For the compound `CN(C)C(=O)c1ccc(-c2cc(-c3ccnc(C#N)c3)cnc2N)nc1` [Example 107, 2′-amino-2″-cyano-N,N-dimethyl-[2,3′:5′,4″-terpyridine]-5-carboxamide], the IC50 was in the range of 1 to 2.5 µM.
In turn, `COc1ncc(-c2cncc(-c3ccc(N4CCCC4=O)cc3)c2)c2cnn(C)c12` [Example 156, 1-(4-(5-(7-methoxy-1-methyl-1H-pyrazolo[3,4-c]pyridin-4-yl)pyridin-3-yl)phenyl)pyrrolidin-2-one] displayed an IC50 of less than 5 µM.
Consider `CN(C)C(=O)c1ccc(-c2cc(-c3ccncc3)cnc2N)nc1` [Example 19, 2′-amino-N,N-dimethyl-[2,3′:5′,4″-terpyridine]-5-carboxamide], for which the IC50 was 0.1 to 1 µM.
For `COC(C)(C)c1cnc2c(c1)c(-c1cncc(-c3ccc(N4CCCC4=O)cc3)c1)cn2C` [Example 155, 1-(4-(5-(5-(2-methoxypropan-2-yl)-1-methyl-1H-pyrrolo[2,3-b]pyridin-3-yl)pyridin-3-yl)phenyl)pyrrolidin-2-one], the IC50 was less than 5 µM.
With `CN(C)C(=O)c1ccc(-c2cc(C3=CCOCC3)cnc2N)cc1` [Example 18, 4-(2-amino-5-(3,6-dihydro-2H-pyran-4-yl)pyridin-3-yl)-N,N-dimethylbenzamide], the IC50 was less than 5 µM.
With `CN(C)C(=O)c1ccc(-c2cc(-c3ccnc4c3ccn4C)cnc2N)nc1` [Example 105, 2′-amino-N,N-dimethyl-5′-(1-methyl-1H-pyrrolo[2,3-b]pyridin-4-yl)-[2,3′-bipyridine]-5-carboxamide], the IC50 fell in the range of 0.1 to 1 µM.
As for `CN(C)C(=O)c1ccc(-c2cc(-c3ccnc(C(C)(C)C)c3)cnc2N)nc1` [Example 106, 2′-amino-2″-(tert-butyl)-N,N-dimethyl-[2,3′:5′,4″-terpyridine]-5-carboxamide], the IC50 is 1 to 2.5 µM.
Compound `CN(C)C(=O)c1ccc(-c2cc(-c3ccc(=O)[nH]c3)cnc2N)cc1` [Example 17, 4-(6-amino-6′-oxo-1′,6′-dihydro-[3,3′-bipyridin]-5-yl)-N,N-dimethylbenzamide] had an IC50 of less than 5 µM.
For `CN(C)C(=O)c1ccc(-c2cc(-c3ccnc(C(C)(C)O)c3)cnc2N)nc1` [Example 101, 2′-Amino-2″-(2-hydroxypropan-2-yl)-N,N-dimethyl-[2,3′:5′,4″-terpyridine]-5-carboxamide], the IC50 fell in the range of 1 to 2.5 µM.
Consider `Nc1ncc(-c2ccnc3c2CNC3=O)cc1-c1ccc(N2CCCC2=O)cc1` [Example 95, 4-(6-amino-5-(4-(2-oxopyrrolidin-1-yl)phenyl)pyridin-3-yl)-5,6-dihydro-7H-pyrrolo[3,4-b]pyridin-7-one], for which the IC50 was in the range of 0.001 to 0.005 µM.
The compound `CN(C)C(=O)c1ccc(-c2cc(-c3ccnc(C(C)(C)C#N)c3)cnc2N)nc1` [Example 102, 2′-Amino-2″-(2-cyanopropan-2-yl)-N,N-dimethyl-[2,3′:5′,4″-terpyridine]-5-carboxamide] had an IC50 of 1 to 2.5 µM.
Then `CN(C)C/C=C/C(=O)Nc1ccc(C(=O)NCc2cc(-c3cnc(N)c(-c4ccc(C(=O)N(C)C)cn4)c3)ccn2)cc1` [Example 189, (E)-2′-amino-2″-((4-(4-(dimethylamino)but-2-enamido)benzamido)methyl)-N,N-dimethyl-[2,3′:5′,4″-terpyridine]-5-carboxamide], with 1 to 2.5 µM; and `CN(C)C/C=C/C(=O)Nc1cccc(C(=O)NCc2cc(-c3cnc(N)c(-c4ccc(C(=O)N(C)C)cn4)c3)ccn2)c1` [Example 192, (E)-2′-amino-2″-((3-(4-(dimethylamino)but-2-enamido)benzamido)methyl)-N,N-dimethyl-[2,3′:5′,4″-terpyridine]-5-carboxamide], with 1 to 2.5 µM.
Consider `CN(C)C(=O)c1ccc(-c2cc(-c3ccnc4occc34)cnc2N)nc1` [Example 104, 2′-amino-5′-(furo[2,3-b]pyridin-4-yl)-N,N-dimethyl-[2,3′-bipyridine]-5-carboxamide], for which the IC50 is 0.1 to 1 µM.
The compound `CN(C)C(=O)c1ccc(-c2cc(-c3ccnnc3)cnc2N)nc1` [Example 108, 2′-amino-N,N-dimethyl-5′-(pyridazin-4-yl)-[2,3′-bipyridine]-5-carboxamide] displayed an IC50 of 2.5 to 5 µM.
As for `CN(C)C(=O)c1ccc(-c2cc(-c3cccnc3)cnc2N)nc1` [Example 119, 2′-amino-N,N-dimethyl-[2,3′:5′,3″-terpyridine]-5-carboxamide], the IC50 is less than 5 µM.
As for `COC(=O)c1cc2c(-c3cnc(N)c(-c4ccc(N5CCCC5=O)cc4)c3)ccnc2[nH]1` [Example 94, methyl 4-(6-amino-5-(4-(2-oxopyrrolidin-1-yl)phenyl)pyridin-3-yl)-1H-pyrrolo[2,3-b]pyridine-2-carboxylate], the half-inhibitory concentration (IC50) lay within 0.1 to 1 µM.
